Data as given in ChEMBL document CHEMBL5143512, “Synthesis and in vitro antitrypanosomal evaluation of novel 6-heteroarylidene-substituted quinolone derivatives” (Eur J Med Chem, 2022).

Experiments:
[1] = tested on: Trypanosoma brucei brucei; test: Antitrypanosomal activity against Trypanosoma brucei brucei 427 trypomastigotes assessed as reduction in parasite growth incubated for 48 hrs by resazurin dye based fluorescence assay; format: functional, organism-based; details: Trypanosoma brucei, 427, 48 h
[2] = Cytotoxicity against human hTERT-BJ cells assessed as cell viability at 5 uM incubated for 48 hrs by MTT based colorimetric assay; format: toxicity; details: read-out: Activity
[3] = Selectivity index, ratio of CC50 for African green monkey Vero cells to IC50 for Antitrypanosomal activity against Trypanosoma brucei brucei 427 trypomastigotes; format: toxicity; details: read-out: Ratio CC50/IC50
[4] = Cytotoxicity against African green monkey Vero cells assessed as cell viability at 5 uM incubated for 48 hrs by MTT based colorimetric assay; format: toxicity; details: chlorocebus sabaeus, read-out: Activity
[5] = tested on: hTERT-BJ; test: Cytotoxicity against human hTERT-BJ cells assessed as reduction in cell viability at 10 uM incubated for 48 hrs by MTT based colorimetric assay; format: toxicity
[6] = Cytotoxicity against human hTERT-BJ cells assessed as cell viability at 1 uM incubated for 48 hrs by MTT based colorimetric assay; format: toxicity; details: read-out: Activity
[7] = Cytotoxicity against African green monkey Vero cells assessed as cell viability at 10 uM incubated for 48 hrs by MTT based colorimetric assay; format: toxicity; details: chlorocebus sabaeus, read-out: Activity
[8] = Cytotoxicity against African green monkey Vero cells assessed as reduction in cell viability incubated for 48 hrs by MTT based colorimetric assay; format: toxicity; details: chlorocebus sabaeus
[9] = Cytotoxicity against human hTERT-BJ cells assessed as cell viability at 10 uM incubated for 48 hrs by MTT based colorimetric assay; format: toxicity; details: read-out: Activity
[10] = Cytotoxicity against African green monkey Vero cells assessed as cell viability at 1 uM incubated for 48 hrs by MTT based colorimetric assay; format: toxicity; details: chlorocebus sabaeus, read-out: Activity

Row | SMILES | IC50 [1] | further results
1 | O=C1/C(=C/c2ccc([N+](=O)[O-])o2)COc2ccccc21 | 510 nM | 
2 | O=C1/C(=C/c2ccc([N+](=O)[O-])o2)CCc2ccccc21 | 360 nM | 
3 | Cc1cccc(Cn2cc(C(=O)NCCN3CCNCC3)c(=O)c3cc(C(=O)/C=C/c4ccc([N+](=O)[O-])o4)ccc32)c1 | 2410 nM | 
4 | COCCNC(=O)c1cn(Cc2ccc(C)cc2)c2ccc(C(=O)/C=C/c3ccc([N+](=O)[O-])o3)cc2c1=O | 120 nM | 
5 | Cc1ccc(Cn2cc(C(=O)NCCOCCO)c(=O)c3cc(C(=O)/C=C/c4ccc([N+](=O)[O-])o4)ccc32)cc1 | 80 nM | viability at 48 h, 5 µM [2]: 88%; selectivity ratio [3]: 42.5; viability at 48 h, 5 µM [4]: 20%; Activity [5]: < 25%; viability at 48 h, 1 µM [6]: 118%; viability at 48 h, 10 µM [7]: 6%; CC50 at 48 h [8]: 3400 nM; viability at 48 h, 10 µM [9]: 66%; viability at 48 h, 1 µM [10]: 105%
6 | COCCNC(=O)c1cn(Cc2ccccc2)c2ccc(C(=O)/C=C/c3ccc([N+](=O)[O-])o3)cc2c1=O | 470 nM | 
7 | O=C(/C=C/c1ccc([N+](=O)[O-])o1)c1ccc2c(c1)c(=O)c(C(=O)NCCOCCO)cn2Cc1ccccc1 | 280 nM | 
8 | CC(=O)c1ccc2c(c1)c(=O)c(C(=O)NCCOCCO)cn2Cc1ccc(Br)cc1 | 7140 nM | 
9 | N=C(N)c1ccc(OCCCCCOc2ccc(C(=N)N)cc2)cc1 [PENTAMIDINE] | 10 nM | 

Further lines, with some results ahead:

Row | IC50 [1] | SMILES | further results
10 | 600 nM | CCOC(=O)c1cn(CC)c2ccc(C(=O)/C=C/c3ccc([N+](=O)[O-])o3)cc2c1=O | 
11 | 3430 nM | COCCNC(=O)c1c[nH]c2ccc(C(=O)/C=C/c3ccc([N+](=O)[O-])o3)cc2c1=O | 
12 | 1310 nM | CCOC(=O)c1cn(CC)c2ccc(C(=O)/C=C/c3ccc(Br)o3)cc2c1=O | 
13 | 15300 nM | CCOC(=O)c1cn(CC(N)=O)c2ccc(C(=O)/C=C/c3ccc([N+](=O)[O-])o3)cc2c1=O | 
14 | 2090 nM | CCOC(=O)c1cn(CCO)c2ccc(C(=O)/C=C/c3ccc([N+](=O)[O-])o3)cc2c1=O | 
15 | 970 nM | CCOC(=O)c1cn(CC)c2ccc(C(=O)/C=C/c3ccc([N+](=O)[O-])s3)cc2c1=O | 
16 | 380 nM | CCOC(=O)c1cn(CCO)c2ccc(C(=O)/C=C/c3ccc([N+](=O)[O-])s3)cc2c1=O | 
17 | 500 nM | CCOC(=O)c1cn(Cc2ccccc2)c2ccc(C(=O)/C=C/c3ccc([N+](=O)[O-])o3)cc2c1=O | 
